Each structure is given as a SMILES string.

Test [1] deals with ischemia-reperfusion rat model. Kind of test: Histological analysis of infarct size and fibrosis. It counts as in vivo, Sprague-Dawley rats. The method, then: After baseline echocardiography, thirty male Sprague-Dawley rats, ages 6-10 weeks, underwent myocardial infarction using an ischemia-reperfusion model. Briefly, rats were anesthetized using inhaled isoflurane (5% induction, 2.5% maintenance, O2 output 1 L/min) and positioned supine on an electrically warmed animal surgery platform. Rats were intubated using a 16-gauge i.v. catheter and then ventilated using a Harvard rodent respirator. After a left thoracotomy and pericardiotomy were performed, a 7-0 Ticron suture was introduced into the myocardium, using the left atrial appendage and right outflow tract as landmarks. The depth of entry was 2 mm, which was slightly greater than the level of the left coronary artery. Both suture ends were then threaded through a PE-90 polyethylene tube 6 in. in length to form a “snare loop” around the artery, closed by pulling on the free ends of the suture. […] The suture was then tightened to occlude the artery for 20 minutes and then removed to allow for reperfusion. The chest was then closed with 5-0 prolene suture, and the animal was allowed to recover. After one week and repeat echocardiography, rats were randomized to placebo rodent feed (control group, n=15) or rodent feed mixed with 1.2% pirfenidone (PFD) (treatment group, n=15) for four weeks. All experiments and data analyses were performed with the operator blinded to treatment group.
Ventricular tissue samples were fixed in 10% neutral buffered formalin. The samples were embedded in paraffin, sectioned (10-μm thick), and then stained with Masson's trichrome or Sirius red with fast green counterstain. Stained slides were examined under light microscopy, digitized using a high-resolution scanner, and analyzed using Photoshop CS software. Infarct areas on Masson's trichome corresponded tightly with areas of dense Sirius red staining with minimal to no fast green. Infarct scar area and total area of left ventricular myocardium, for all sections, were manually traced in the digital images and automatically calculated by the software. Infarct size, expressed as a percentage, was measured by dividing the sum of infarct areas from all sections by the sum of LV areas from all sections and multiplying by 100.
The total area of fibrosis was also assessed. After excluding the infarct area (defined as dense fibrosis), fibrosis in the border and non-infarct zones was quantified from digital photomicrographs of the Sirius red-stained sections. Areas containing blood vessels and perivascular interstitial cells were also excluded from fibrosis quantification. The red pixel content of digitized images relative to the total tissue area was counted by using the Adobe Photoshop CS software.

Test [2] has as its system TNF-α, TGF-β1, bFGF, PDGF, and EGF. The settings on record: literature report; cited from earlier work.
Test [3] concerns ischemia-reperfusion rat model. The test is described as follows: Optical mapping, programmed stimulation and VT inducibility of excised hearts 5 wks after MI. Type of test: in vivo, Sprague-Dawley rats. The conditions noted are these: for conduction heterogeneity vs control: all tested cycle lengths; for rise times of border zones vs control: significant at lowest PCL. The method, then: After baseline echocardiography, thirty male Sprague-Dawley rats, ages 6-10 weeks, underwent myocardial infarction using an ischemia-reperfusion model. Briefly, rats were anesthetized using inhaled isoflurane (5% induction, 2.5% maintenance, O2 output 1 L/min) and positioned supine on an electrically warmed animal surgery platform. Rats were intubated using a 16-gauge i.v. catheter and then ventilated using a Harvard rodent respirator. After a left thoracotomy and pericardiotomy were performed, a 7-0 Ticron suture was introduced into the myocardium, using the left atrial appendage and right outflow tract as landmarks. The depth of entry was 2 mm, which was slightly greater than the level of the left coronary artery. Both suture ends were then threaded through a PE-90 polyethylene tube 6 in. in length to form a “snare loop” around the artery, closed by pulling on the free ends of the suture. […] The suture was then tightened to occlude the artery for 20 minutes and then removed to allow for reperfusion. The chest was then closed with 5-0 prolene suture, and the animal was allowed to recover. After one week and repeat echocardiography, rats were randomized to placebo rodent feed (control group, n=15) or rodent feed mixed with 1.2% pirfenidone (PFD) (treatment group, n=15) for four weeks. All experiments and data analyses were performed with the operator blinded to treatment group. Optical mapping is a technique to perform high-resolution electrophysiologic evaluation of the cardiac tissue. To summarize the procedure, ten thousand simultaneous optical action potentials were recorded with a 100×100 CMOS camera within a 19 mm×19 mm mapping field on the epicardium of the LV anterior wall. Using a 1000-W tungsten-halogen light source, fluorescence was excited with an excitation filter of 530 nm and transmitted with an emission long-pass filter of >630 nm. Fluorescent optical maps were acquired at 2000 Hz during programmed electrical stimulation. Optical mapping was performed 5 wks after MI. Rats were injected with heparin (500 U ip) 15 min before excision of the heart, and were then anesthetized with pentobarbital sodium (50 mg/kg ip). After adequate anesthesia, the heart was rapidly excised and arrested by immersion in cold cardioplegia solution. The aorta was cannulated and retrogradely perfused, at a rate of 6 mL/min, with 37° C. modified Tyrode solution containing (in mmol/L): 130 NaCl, 20.0 NaHCO3, 1.2 MgCl2, 4.0 KCl, 5.6 glucose, and 1.8 CaCl2, gassed with 95% 02/5% C02. Extraneous tissue was carefully removed from the heart. The cannulated heart was then placed in 37° C. Tyrode solution in a specialized temperature-controlled optical recording chamber (maintained at 37° C.) while ECG, perfusion rate, and temperature were measured continuously for the duration of the experiment. Before optical recordings, Tyrode solution containing voltage-sensitive dye PGH I (10 μL of 5 mM stock solution) was perfused through the preparation over a 5-min period. Once a cannulated heart was perfused with PGH I, it was placed in the optical chamber with its LV anterior wall pressed against the imaging window. […] During optical recordings, contractility was blocked with 15 mM butadione monoxime (BDM). Ventricular epicardium bipolar pacing, at a stimulus amplitude of 2× threshold, was performed on normal tissue near the infarct zone. Mapping was recorded during pacing drives of 250 ms to 90 ms (decremented by 10 ms), as well as during S1-S2 pacing using a basic cycle length (BCL) of 200 ms and maximum S2 of 150 ms and decremented by 10 ms. Programmed stimulation, with up to three extrastimuli, and burst pacing (from 90 ms to 60 ms) were used to assess arrhythmia inducibility. Inducibility was defined as the ability to provoke sustained (>30 s) ventricular tachycardia (VT) or ventricular fibrillation. Maps were also captured during programmed stimulation and with all episodes of arrhythmia. […]

For `Cc1ccc(=O)n(-c2ccccc2)c1` [pirfenidone], the “amount of fibrosis (including border zones and non-MI areas and infarct scar)” value in test [1] (controls 23±2%, p=0.01) was 13±3%. Besides, the “total amount of fibrosis and extra-infarct fibrosis” value in test [1] (rat MI model) is given as “attenuated”. In addition, the “infarct size, percent of total myocardium” value in test [1] (rat MI model, controls 18%±2.7%, p=0.022) turned out to be 10±1.9%. The “fibrosis within the infarct border zone” value in test [1] (rat MI model, vs control infarcts) is on record as “not only decreased but its distribution appeared less heterogeneous”. In test [2], the “biosynthesis or release of various cytokines such as TNF-α, TGF-β1, bFGF, PDGF, and EGF” value is listed as “inhibit excessive biosynthesis or release”; the collagen expression result was “decrease collagen expression”. In addition, in test [3], the “fluorescence amplitude in the border zones vs control” value is reported as “trend toward higher amplitudes”. For the same compound, the “decrease in VT susceptibility vs control” value in test [3] (5 wks after MI) is recorded as “almost three-fold decrease”. Besides, the “rate of VT induction” value in test [3] (5 wks after MI, controls 73.3%, p=0.027) was 28.6%. Moreover, in test [3] (all pacing cycle lengths, p<0.05), the “conduction velocities in the border zones vs control” value was “significantly faster”. Moreover, the “conduction heterogeneity vs control” value in test [3] (p=0.146) is recorded as “trend toward lower conduction heterogeneity”. Moreover, the “conduction heterogeneity vs control” value in test [3] (p=0.146, listed as PFD) was “trend toward higher conduction heterogeneity indices in control animals”. In addition, in test [3] (trend at all PCLs), the “maximal rate of AP rise (dF/dt) of border zones vs control” value is reported as “faster than the rise of control border zones” and the “rise times of border zones vs control” value was “shorter”. In test [3] (trend at all PCLs, listed as PFD), the “rise times of border zones vs control” value is “lower than those of control border zones”.

These data come from patent US20110218515A1, “Methods for Treating Acute Myocardial Infarctions and Associated Disorders” (The Regents of the University of California, priority 2009, published 2011).
